The record followed here is US3950527A, “N-[ω-(4'-(3"-indolyl)-piperidino)-alkyl]-benzamides” (Roussel-UCLAF, priority 1974, dated 1976).

Data set [1] can be described thus: Antagonism to toxicity of amphetaminic compounds. The conditions noted are these: Mus musculus, ip; male mice, intraperitoneal 30 minutes before 15 mg/kg i.p. dexamphetamine sulfate; group mortality at 24 hours; read-out: DE50, Antagonism to toxicity of amphetamines. It counts as in vivo. The protocol:
C. Antagonism to toxicity of amphetaminic compounds
This test was determined on groups of 10 male mice in a crystallizer with a 20 cm diameter and a 9 cm height covered with a grill. The animals received an intraperitoneal injection of 15 mg/kg of dexamphetamine sulfate 30 minutes after intraperitoneal administration of the test product. The group mortality was counted 24 hours after the injection of dexamphetamine sulfate and the DE50 dose was determined.

Another data set can be described thus: Acute toxicity. The conditions noted are these: mouse, in vivo, ip; mice, intraperitoneal, mortality after 48 hours; read-out: DL50, acute toxicity. The protocol: The acute toxicity was determined by intraperitoneal administration of the test compounds to mice in increasing doses and determination of the mortality after 48 hours to determine the DL50 dose.

Data set [2] concerns mouse. Briefly: Traction Test (neurosedative activity). It counts as in vivo. The settings on record: ip, 0.5 h, mice, intraperitoneal, 30 minutes after administration, dose at which 50% of the animals do not reestablish themselves in 5 seconds, read-out: DE50, Traction Test. From the text: This test consisted of suspending a mouse by the front paws from a horizontal metal wire and in a time of less than 5 seconds, the normal mouse will effect a reestablishment by managing to place at least one hind paw on the wire. […]

For data set [3], the system named is mouse. In words: Chimney Test (neurosedative activity). The settings on record: ip, 0.5 h, mice, intraperitoneal, 30 minutes after administration, read-out: DE50, Chimney Test. It counts as in vivo. The protocol:
This test consisted of placing a mouse in the end of a glass tube 30 cm long with a diameter adapted to the size of the mouse. The tube was straightened vertically in a rapid manner with the head of the mouse at the base. The normal uprighting time for the mouse in the tube was less than 30 seconds. The test was conducted 30 minutes after intraperitoneal administration of the test product and the DE50 dose was determined and is reported in Table I.

The nature of data set [4]: Antagonism to vomitting provoked by apomorphine. It counts as in vivo. The conditions noted are these: Canis lupus familiaris, sc, 0.5 h; dogs, subcutaneous 30 minutes before 0.1 mg/kg s.c. apomorphine hydrochloride; vomitting counted over one half hour; read-out: DE50, antagonism to vomitting provoked by apomorphine. The protocol: C. Antagonism to vomitting provoked by apomorphine
This test was effected on dogs as reported by Chen et al. [J. Pharmac. exp. Therap. Vol. 93 (1950), p. 245-250]. The test product was subcutaneously administered 30 minutes before subcutaneous administration of 0.1 mg/kg of apomorphine hydrochloride. […] The cross tests were repeated after 8 days on lots of 2 dogs and the DE50 dose was determined to be 0.005 mg/kg.

The nature of data set [5]: Antipsychotic activity, overall conclusion from the tests on the product of Example 2. The settings on record: in vivo. The protocol:
This test consisted of using groups of 5 rats which were placed in individual grill cages. The rats received intraperitoneally 8 mg/kg of dexamphetamine sulfate 30 minutes after intraperitoneal administration of the test products and the test used controls and treated animals. The rating scale was that described by Halliwel et al. [Brit. J. Pharmacol., Vol. 23 (1964), p. 330-350] and the DE50 of the product was […].
(§1) This test used groups of 5 male rats in a test inspired by Janssen et al. [Arzn. Forsch., Vol. 15 (1965), p. 104-117 and Vol. 17 (1967), p. 841-854] with each rat in an individual grill cage. Each animal received an intravenous injection in the vein of the penis of 1.5 mg of apomorphine hydrochloride 30 minutes after intraperitoneal administration of the test compound. The animals, control and treated, were observed 1,5,10 and 15 minutes after the last injection and the stereotype movements of the buccal sphere were evaluated for their intensity on a scale of 0 to 3 as by Boissier et al. [Therapie., Vol. 25 (1970), p. 939-949]. The height of the test was determined and the DE50 dose was ascertained to be 10 mg/kg.
This test was effected on dogs as reported by Chen et al. [J. Pharmac. exp. Therap. Vol. 93 (1950), p. 245-250]. […] The cross tests were repeated after 8 days on lots of 2 dogs and the DE50 dose was determined to be 0.005 mg/kg.

A further data set is described as follows: Cataleptic Power. It counts as in vivo, young rats. The conditions noted are these: for cataleptic activity (in words): rat, in vivo. The protocol:
D. Cataleptic Power This test is described by Boissier et al. [Therapie., Vol. 18 (1963), p. 1257-1277] and was effected on young rats by crossing the homolateral paws and noting the intensity of catalepsy. The test product was intraperitoneally administered and the DE50 was formed to be greater than 60 mg/kg.

Data set [6] is described as follows: Antagonism to stereotypes provoked by apomorphine. It counts as in vivo. The conditions noted are these: Rattus norvegicus, ip; male rats, intraperitoneal 30 minutes before 1.5 mg intravenous apomorphine hydrochloride; read-out: DE50, antagonism to stereotypes provoked by apomorphine. The protocol: B. Antagonism to sterotypes provoked by apomorphine
as §1

The mark [7] stands for this setting: listed as acid succinate of N-[β-(4'-(3"-indolyl)-piperidino)-ethyl]-4-fluoro-benzamide.

As for `O=C(NCCN1CCC(c2c[nH]c3ccccc23)CC1)c1ccccc1` [Example 1, N-[β-(4'-(3"-indolyl)-piperidino)-ethyl]-benzamide], the results for the ED50 (in data set [1]; in the data set with mouse [2]; in the data set with mouse [3]) were 3 mg/kg, 18 mg/kg and 7 mg/kg, respectively. Besides, in “Acute toxicity”, the LD50 at 48 h turned out to be 300 mg/kg.

With `O=C(NCCN1CCC(c2c[nH]c3ccccc23)CC1)c1ccc(F)cc1` [Example 2, N-[β-(4'-(3"-indolyl)-piperidino)-ethyl]-p-fluoro-benzamide acid succinate], the ED50 in data set [1] is 0.3 mg/kg; in data set [4], 0.005 mg/kg; in “Cataleptic Power” (Rattus norvegicus, ip, young rats, intraperitoneal, crossing the homolateral paws, read-out: DE50, cataleptic power), above 60 mg/kg; with mouse [2], 6.5 mg/kg; in the data set on mouse [3] it was 2 mg/kg; in data set [6], 10 mg/kg. Further, the “antipsychotic activity (in words)” value is listed as “important antipsychotic activity” in data set [5] and “antipsychotic activity” in data set [5] (setting [7]). Besides, the “cataleptic activity (in words)” value is recorded as “practically devoid of cataleptigenic activity” in “Cataleptic Power” and “without cataleptic properties” in the data set “Cataleptic Power” (setting [7]). For the same compound, in “Acute toxicity”, the LD50 at 48 h was determined as 125 mg/kg.

In the case of `O=C(NCCCN1CCC(c2c[nH]c3ccccc23)CC1)c1ccc(F)cc1` [Example 3, N-[γ-(4'-(3"-indolyl)-piperidino)-propyl]-p-fluorobenzamide], the ED50 in data set [1] was 8 mg/kg; with mouse [2] it was 20 mg/kg; with mouse [3], 5 mg/kg. Further, in the data set “Acute toxicity”, the LD50 at 48 h was found to be 60 mg/kg.

As to `COc1cc(F)ccc1C(=O)NCCN1CCC(c2c[nH]c3ccccc23)CC1` [Example 4, N-[β-(4'-(3"-indolyl)-piperidino)-ethyl]-p-fluoro-o-methoxy-benzamide], the ED50 in data set [1] was 0.35 mg/kg; in the data set on mouse [2], 8.5 mg/kg; in the data set with mouse [3], 4.5 mg/kg. Moreover, the LD50 at 48 h in “Acute toxicity” is above 800 mg/kg.

Regarding `COc1ccc2c(C3CCN(CCNC(=O)c4ccc(F)cc4)CC3)c(C)[nH]c2c1` [Example 5, N-[β-(4'-(2"-methyl-6"-methoxy-3"-indolyl)-piperidino)-ethyl]-p-fluoro-benzamide], the figures for the ED50 (in data set [1]; with mouse [2]; with mouse [3]) were 3 mg/kg, 25 mg/kg and 17 mg/kg, respectively. The LD50 at 48 h in “Acute toxicity” was 400 mg/kg.

As for `COc1cc(N)c(Cl)cc1C(=O)NCCN1CCC(c2c[nH]c3ccccc23)CC1` [Example 7, N-[β-(4'-(3"-indolyl)-piperidino)-ethyl]-2-methoxy-4-amino-5-chloro-benzamide], the LD50 at 48 h in “Acute toxicity” was above 800 mg/kg.

For the compound `COc1ccc(S(N)(=O)=O)cc1C(=O)NCCN1CCC(c2c[nH]c3ccccc23)CC1` [Example 8, N-[β-(4'-(3"-indolyl)-piperidino)-ethyl]-2-methoxy-5-sulfamoyl-benzamide], in “Acute toxicity”, the LD50 at 48 h was determined as 800 mg/kg.
